Data published in patent publication US20260355328A1, “A complex comprising a cargo and a targeting moiety binding intelectin-1” (Stichting Radboud universitair medisch centrum, priority 2022, published 2026).
Residues, ends and D or L forms follow the SMILES beside them. *: point of attachment. DOTA = O=C(O)CN1CCN(CC(=O)O)CCN(CC(=O)*)CCN(CC(=O)O)CC1

What was measured:
[1] = Biodistribution of Cy5.5-hLF in LPS-induced inflammation mouse model; assay type: in vivo, C57BI/6 mice; conditions: for organ with highest signal: LPS-treated and non-treated mice; for localization in the glomeruli: kidney of LPS-treated mice
Protocol: At the start, 8- to 10-week-old C57BI/6 mice (Charles River) received an intraperitoneal injection with either 100 μl of 2 mg/kg LPS in 5% glucose solution, or only 5% glucose solution. After 24 hours, mice were injected with 50 μl of 200 μM Cy5.5-labelled peptide. Assuming a blood volume of 1.2 ml this would theoretically result in a concentration of ~8.5 μM in the circulation. After 4 hours, organs were perfused with phosphate buffer, followed by 4% PFA. Organs were removed and peptide distribution was analysed using the In Vivo Imaging System (IVIS; Perkin Elmer). Organs were then fixed by overnight incubation in 4% PFA, followed by overnight incubation in 30% sucrose. Subsequently, organs were frozen for analysis by confocal laser-Scanning microscopy using a TCS SP5 confocal microscope (Leica Microsystems). Glomerular and tubular regions were selected in microscopical pictures from which the mean fluorescence intensity was determined by ImageJ software.

[2] = Biodistribution of 111In-DOTA-labelled hLF variants after intravenous injection; assay type: in vivo, C57BI/6 mice; conditions: i.v., 4 hours
Protocol: Female and male 10-12-weeks-old C57BI/6 mice (Charles River) were injected via the tail vein with 50 μl of 200 μM 111 In-DOTA-labelled hLF peptides. […] Organs were collected 4 hours after injection, and radioactivity was measured in a gamma-counter. The percentage injected dose per gram of tissue (% ID/gram) was determined for each tissue and ratios between organs were calculated.

mGEnC treated with TNFα = assay: Uptake by mGEnC after activation with TNFα; assay type: cell-based; conditions: 10 ng/ml mouse TNFα 16 hours
Protocol: (§1) Conditionally immortalized mouse glomerular endothelial cells (mGEnC) were cultured as previously described (Rops et al. Kidney Int. 2004; 66 (6): 2193-201). HeLa cells were employed as a frequently used model cell line and were cultured in DMEM/F12 medium containing 10% fetal calf serum (FCS). For studying uptake, cells were incubated in their respective medium with 10% FCS containing fluorescein-labelled peptides at the indicated concentrations for 20 minutes at 37 °C. In some cases, cells were activated for 16 hours with 10 ng/ml mouse TNFα (Sigma), or co-incubated with Alexa Fluor 633-labeled transferrin (Invitrogen Molecular Probes). Subsequently, cells were washed with PBS and analysed using confocal laser-scanning microscopy on a TCS SP5 confocal microscope (Leica Microsystems), or detached by trypsin/EDTA and analysed on a FACSCalibur Flow cytometer (BD Biosciences) by measuring 20,000 cells.
(§2) Conditionally immortalized mouse glomerular endothelial cells (mGEnC) were cultured as previously described (Rops et al. Kidney Int. 2004; 66 (6): 2193-201). Cells were incubated in their respective medium with 10% FCS containing fluorescein-labelled peptides at 5 μM for 20 minutes at 37 °C. In some cases, cells were activated for 16 hours with 10 ng/ml mouse TNFα (Sigma), or co-incubated with 100 μg/ml Alexa Fluor 633-labeled transferrin (Invitrogen Molecular Probes). Pre-treatment with ITLN-1 or control siPool siRNA (siTools Biotech) was performed according to the manufacturer's protocol. Subsequently, cells were detached with trypsin/EDTA and analysed by flow cytometry on a FACSCalibur Flow cytometer (BD Biosciences). For immunostaining, cells or 5-μm cryosections of mouse kidney were fixed for 10 minutes with 4% paraformaldehyde, and in the indicated cases permeabilized with 0.3% Triton X-100 in PBS. Subsequently, cells and cryosections were stained for 1 hour with anti-intelectin-1 (R&D Systems) or anti-LRP-1 (Abcam) antibodies, and after washing incubated for 1 hour with the appropriate Alexa Fluor-labelled secondary antibody (Invitrogen Molecular Probes). Cells and cryosections were analyzed by confocal laser-Scanning microscopy was performed using a TCS SP5 confocal microscope (Leica Microsystems).

ITLN-1 = target: T1, ITLN-1 (Mus musculus, UniProt O88310); assay: Uptake by mGEnC after downregulation of ITLN-1 with siRNA; assay type: cell-based; conditions: peptides at 5 μM, FIG. 2E
T1 construct: ITLN-1 siRNA versus control siRNA
Protocol: as §2

HeLa = assay: Uptake in multiple cell lines (Table 2): HeLa; assay type: cell-based; conditions: fluorescein-labeled peptide, confocal microscopy, HeLa (human)
Protocol: as §1
as §2, with “Subsequently, cells and cryosections were stained for 1 hour with anti-intelectin-1 (R&D Systems) or anti-LRP-1 (Abcam) antibodies, and after washing incubated for 1 hour with the appropriate Alexa Fluor-labelled secondary antibody (Invitrogen Molecular Probes).” left out

EOMA = assay: Uptake in multiple cell lines (Table 2): EOMA; assay type: cell-based; conditions: fluorescein-labeled peptide, confocal microscopy, EOMA (mouse)
HUVEC = assay: Uptake in multiple cell lines (Table 2): HUVEC; assay type: cell-based; conditions: fluorescein-labeled peptide, confocal microscopy, HUVEC (human)
Podocytes = assay: Uptake in multiple cell lines (Table 2): Podocytes; assay type: cell-based; conditions: fluorescein-labeled peptide, confocal microscopy, Podocytes (mouse)
Protocol: as §1
as §2, with “Subsequently, cells and cryosections were stained for 1 hour with anti-intelectin-1 (R&D Systems) or anti-LRP-1 (Abcam) antibodies, and after washing incubated for 1 hour with the appropriate Alexa Fluor-labelled secondary antibody (Invitrogen Molecular Probes).” left out

mGEnC = assay: Uptake in multiple cell lines (Table 2): mGEnC; assay type: cell-based; conditions: fluorescein-labeled peptide, confocal microscopy, mGEnC (mouse)
Protocol: as §1
as §2, with “Subsequently, cells and cryosections were stained for 1 hour with anti-intelectin-1 (R&D Systems) or anti-LRP-1 (Abcam) antibodies, and after washing incubated for 1 hour with the appropriate Alexa Fluor-labelled secondary antibody (Invitrogen Molecular Probes).” left out

hGEnC = assay: Uptake in multiple cell lines (Table 2): hGEnC; assay type: cell-based; conditions: fluorescein-labeled peptide, confocal microscopy, hGEnC (human)
HeLa cells = assay: Uptake of fluorescein-labelled peptides by HeLa cells (flow cytometry); assay type: cell-based, human; conditions: FIG. 1B
Protocol: as §1

[3] = Biodistribution of full-length lactoferrin, lactoferricin and hLF-6 in LPS-challenged mice (IVIS); assay type: in vivo; conditions: fluorescent label, i.v., 2 h
Protocol: Lactoferrin and lactoferricin are cloned in an expression plasmid containing the C-terminal Sortase-sequence protein-LPETG-HHHHHH. LPETGHHHHHH is SEQ ID NO: 98. Next, the protein is expressed overnight in E. coli and purified from sonicated bacterial cell lysates by Ni-NTA beads using 400 mM imidazole to elute the proteins. After overnight dialysis, full-length lactoferrin and hLF-6 are labelled by means of a Sortase exchange reaction on the C-terminus with a fluorescent dye (Alexa647 or Cy5.5) for 2 h at 4 °C using a fluorescently labelled donor peptide (formula:biotin-GSSG-LPETG-label or biotin-GSSG-LPETG-PEG40k-label) as substrate GSSGLPETG is SEQ ID NO: 99. Excess donor peptide is removed by means of streptavidin binding of the biotin tag on the N-terminus of the donor peptide. Next, the purified labelled protein/peptide is injected into LPS-challenged mice via intravenous injection in the tail vein. Mice are sacrificed after 2 h, and organs harvested for imaging by IVIS. Biodistribution is quantified for each organ, and relative distribution is shown.

[4] = test system: heparan sulphate on mGEnC; assay: Peptide uptake by mGEnC after removal of heparan sulphate (heparinases); assay type: cell-based, mouse; conditions: 5 μM, FIG. 1D
Protocol: (D) Digestion of heparan sulphate from the cell surface has a limited effect on the uptake of lactoferrin-derived peptides (5 μM). Percentage of uptake for heparan sulphate-cleaved compared to undigested cells is shown.
as §1
In order to further substantiate that uptake of hLF occurred by a mechanism different of the one typically observed for CPPs, we addressed the role of heparan sulphate proteoglycans (HSPGs).

[5] = test system: mouse glomerular endothelial cells (mGEnC); assay: Uptake of fluorescein-labelled peptides by mGEnC (flow cytometry); assay type: cell-based; conditions: different concentrations, 20 minutes at 37 °C, FIG. 1A
Protocol: as §1

T1 sequence (O88310 19-298): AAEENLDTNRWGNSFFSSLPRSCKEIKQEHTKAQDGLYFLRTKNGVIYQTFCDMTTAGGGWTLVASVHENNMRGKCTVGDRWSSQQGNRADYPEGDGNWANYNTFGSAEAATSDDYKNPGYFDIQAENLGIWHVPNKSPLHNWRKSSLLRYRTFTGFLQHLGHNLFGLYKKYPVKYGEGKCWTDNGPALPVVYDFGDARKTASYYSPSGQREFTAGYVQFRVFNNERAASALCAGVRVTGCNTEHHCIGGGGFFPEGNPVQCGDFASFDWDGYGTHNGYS

Compound	effect of TNFα treatment on uptake (mGEnC treated with TNFα)	uptake after ITLN-1 siRNA compared to control siRNA (ITLN-1)	Uptake (Table 2) (HeLa)	Uptake (Table 2) (EOMA)	Uptake (Table 2) (HUVEC)	Uptake (Table 2) (Podocytes)	Uptake (Table 2) (mGEnC)	Uptake (Table 2) (hGEnC)	uptake in HeLa cells (HeLa cells)	also measured
Cy5.5-KCFQWQRNMRKVRGPPVSCIKR-NH2 ({Cy5.5}-KCFQWQRNMRKVRGPPVSCIKR-NH2; cysteine pairing not given here) [Cy5.5-hLF]										organ with highest signal ([1]; IVIS): predominant distribution in kidney and liver; organ with highest signal ([1]; IVIS, listed as Cy5.5-labeled hLF): highest signal for the peptide was present in the kidneys, followed by the liver; biodistribution to the kidney with LPS-induced inflammation ([1]; IVIS, i.v., 4 hours, LPS-treated mice, FIG. 4A): increase biodistribution to the kidney; urinary excretion (urine colour) ([1]; all injected mice): Urine was coloured by excreted Cy5.5-labelled peptide in all mice; fluorescence in liver, lung and spleen ([1]; confocal microscopy, FIG. 4B): much lower fluorescence; localization to the tubules, LPS-treated versus untreated ([1]; confocal microscopy, FIG. 4B): similar; localization in the glomeruli ([1]; confocal microscopy, FIG. 4B): in glomeruli only in LPS-treated mice; localization in the glomeruli ([1]; confocal microscopy, FIG. 4B, listed as Cy5.5-labeled hLF): clearly pronounced; detection in the liver ([1]; histology of cryosections): singular cells appeared weakly positive; detection in the spleen ([1]; histology of cryosections): could hardly be detected
CC(C)[C@H](NC(=O)[C@H](CCCCN)NC(=O)[C@H](CCCNC(=N)N)NC(=O)CN1CCN(CC(=O)O)CCN(CC(=O)O)CCN(CC(=O)O)CC1)C(=O)N[C@@H](CCCNC(=N)N)C(=O)NCC(=O)N1CCC[C@H]1C(=O)N1CCC[C@H]1C(N)=O [^111In-DOTA-hLF-7, ^111In-DOTA-RKVRGPP-NH2, metal not drawn] ({DOTA}-RKVRGPP-NH2)										kidney/liver ratio (in words) [2]: still increased; localization to the kidney ([2]; FIG. 5): reduced distribution to the kidney; localization to the liver and spleen ([2]; FIG. 5): reduced distribution to the liver and spleen
transferrin: Alexa Fluor 633-labeled transferrin, marker for clathrin-mediated endocytosis [reference compound]	not significantly affected	not affected								
CC[C@H](C)[C@H](NC(=O)[C@H](CCCCN)NC(=O)[C@@H](NC(=O)[C@H](CCC(N)=O)NC(=O)[C@@H](N)CCCNC(=N)N)[C@@H](C)CC)C(=O)N[C@@H](Cc1c[nH]c2ccccc12)C(=O)N[C@@H](Cc1ccccc1)C(=O)N[C@@H](CCC(N)=O)C(=O)N[C@@H](CC(N)=O)C(=O)N[C@@H](CCCNC(=N)N)C(=O)N[C@@H](CCCNC(=N)N)C(=O)N[C@@H](CCSC)C(=O)N[C@@H](CCCCN)C(=O)N[C@@H](Cc1c[nH]c2ccccc12)C(=O)N[C@@H](CCCCN)C(=O)N[C@@H](CCCCN)C(N)=O [penetratin, reference compound]		not affected	High	Low	High	High	Low	Low	show uptake	uptake after TNFα treatment by confocal microscopy (mGEnC treated with TNFα): barely detectable; increase of uptake after TNFα treatment (mGEnC treated with TNFα; 5 μM, FIG. 1E): 50-100%
RKVRGPPVSCIKRDS [hLF-6]										accumulation in the kidney compared to lactoferrin and lactoferricin [3]: significantly greater accumulation in the kidney
KCLRWQNEMRKVGGPPLSCIKR [mLF, mouse variant of hLF]	increased uptake	reduced uptake	Low	High	High	High	High	High	only a minimal uptake and not	decrease in uptake after removal of heparan sulphate [4]: ~ 20%; uptake in mGEnC [5]: uptake occurred similarly to hLF
